Reference: DBAASP
Converted amounts (≈) assume the structure as drawn.

How the values were obtained:
Experiment in all cases: ≥ marks a high value that may be exact or a test limit, other limits are often not marked, values filed in µg/mL are converted to µM
Enterococcus gallinarum = tested on: Enterococcus gallinarum
Enterococcus faecalis = tested on: Enterococcus faecalis
Pseudomonas aeruginosa = tested on: Pseudomonas aeruginosa
Acinetobacter baumannii = tested on: Acinetobacter baumannii
Raoultella terrigena = tested on: Raoultella terrigena
[1] = tested on: Candida albicans ATCC 10231
[2] = tested on: Yersinia pseudotuberculosis YPIII
Bacillus megaterium Bm11 = tested on: Bacillus megaterium Bm11
[3] = tested on: Staphylococcus aureus Cowan 1
[4] = tested on: Escherichia coli ATCC 25922
Staphylococcus capitis 1 = tested on: Staphylococcus capitis 1
[5] = tested on: Vibrio splendidus CIP 107715
[6] = tested on: Staphylococcus aureus SG511
[7] = tested on: Staphylococcus aureus CIP 103428
[8] = tested on: Vibrio nigripulchritudo CIP 103195
[9] = tested on: Bacillus megaterium CIP 6620
[10] = tested on: Staphylococcus haemolyticus
[11] = tested on: Micrococcus luteus CIP 5345
[12] = tested on: Corynebacterium stationis CIP 101282
[13] = tested on: Microbacterium maritypicum CIP 105733T
Escherichia coli SBS 363 = tested on: Escherichia coli SBS 363
[14] = tested on: Klebsiella pneumoniae ATCC 700603
[15] = tested on: Escherichia coli ATCC 25726
[16] = tested on: Acinetobacter baumannii NM8
[17] = tested on: Staphylococcus epidermidis RP62A/1
[18] = tested on: Enterococcus faecalis ATCC 29212
[19] = tested on: Candida albicans ATCC 90028
[20] = tested on: Staphylococcus aureus 127/08
[21] = tested on: Staphylococcus aureus ATCC 25923
[22] = tested on: Staphylococcus epidermidis RP62A
[23] = tested on: Staphylococcus epidermidis T6/19
[24] = tested on: Acinetobacter baumannii NM35
[25] = tested on: Stenotrophomonas maltophilia B5/5
[26] = tested on: Staphylococcus aureus 145/08
[27] = tested on: Pseudomonas aeruginosa ATCC 27853
[28] = tested on: Stenotrophomonas maltophilia B32/1
[29] = tested on: Stenotrophomonas maltophilia B32/4
[30] = tested on: Acinetobacter baumannii NM124
[31] = tested on: Escherichia coli KCTC 1682
[32] = tested on: Escherichia coli CCARM 1229
[33] = tested on: Salmonella typhimurium KCTC 1926
[34] = tested on: Listeria monocytogenes KCTC 3710
[35] = tested on: Escherichia coli CCARM 1238
[36] = tested on: Bacillus subtilis KCTC 1918
[37] = tested on: Trichosporon beigelii KCTC 7707
[38] = tested on: Candida albicans CCARM 14020
[39] = tested on: Candida albicans KCTC 7270
[40] = tested on: Candida albicans CCARM 14007
[41] = tested on: Candida albicans CCARM 14001
[42] = tested on: Pseudomonas aeruginosa KCTC 1637
[43] = tested on: Staphylococcus aureus KCTC 1621

In the case of `CSCC[C@H](NC(=O)[C@H](C)NC(C)=O)C(=O)N[C@H](C(=O)N[C@@H](CO)C(=O)N[C@@H](CO)C(=O)O)C(C)C` [AMVSS], the MIC (Enterococcus gallinarum) is reported as 23.1 µM (≈ 12.4 µg/mL), the MIC (Enterococcus faecalis) is reported as ≥ 46.2 µM and the MIC (Pseudomonas aeruginosa) is reported as 23.1 µM (≈ 12.4 µg/mL). For the same compound, the MIC (Acinetobacter baumannii) was 23.1 µM (≈ 12.4 µg/mL) and the MIC (Raoultella terrigena) was 23.1 µM (≈ 12.4 µg/mL).

`CC[C@H](C)[C@H](NC(=O)CNC(=O)[C@H](CO)NC(=O)[C@H](C)NC(=O)[C@@H](NC(=O)[C@H](CCCN=C(N)N)NC(=O)CNC(=O)[C@@H](NC(=O)[C@H](CC(C)C)NC(=O)[C@@H]1CCCN1C(=O)[C@H](CC(C)C)NC(=O)[C@@H](N)Cc1ccccc1)[C@@H](C)CC)C(C)C)C(=O)N[C@@H](CC(C)C)C(N)=O` [FLPLIGRVASGIL] was tested, and the MIC [1] was > 40 µM, the MIC [2] was ≥ 40 µM and the MIC (Bacillus megaterium Bm11) was ≥ 40 µM. The MIC [3] was ≥ 40 µM, the MIC [4] was > 40 µM and the MIC (Staphylococcus capitis 1) was ≥ 40 µM.

With `CC[C@H](C)[C@H](NC(=O)[C@@H]1CCCN1C(=O)CN)C(=O)N[C@@H](CCCN=C(N)N)C(=O)N[C@@H](CCCN=C(N)N)C(=O)N1CCC[C@H]1C(=O)N[C@@H](CCCCN)C(=O)N1CCC[C@H]1C(=O)N[C@@H](CCCN=C(N)N)C(=O)N1CCC[C@H]1C(=O)N[C@@H](CCCN=C(N)N)C(=O)N1CCC[C@H]1C(=O)N[C@@H](CCCN=C(N)N)C(=O)N1CCC[C@H]1C(=O)N[C@@H](CCC(=O)O)C(=O)O` [GPIRRPKPRPRPRPE] the MIC [5] was ≥ 40 µM, the MIC [6] was 20 µM (≈ 36.2 µg/mL) and the MIC [7] was 20 µM (≈ 36.2 µg/mL). For the same compound, the MIC [8] was ≥ 40 µM, the MIC [9] was 20 µM (≈ 36.2 µg/mL) and the MIC [10] was 20 µM (≈ 36.2 µg/mL). The MIC [11] was ≥ 80 µM, the MIC [12] was 20 µM (≈ 36.2 µg/mL) and the MIC [13] was 20 µM (≈ 36.2 µg/mL). For the same compound, the MIC (Escherichia coli SBS 363) was ≥ 80 µM.

With `CC[C@H](C)[C@H](N)C(=O)N[C@@H](CCCCN)C(=O)N[C@H](C(=O)N1CCC[C@H]1C(=O)N[C@@H](CO)C(=O)N[C@@H](Cc1ccccc1)C(=O)N[C@@H](Cc1ccccc1)C(=O)N[C@@H](CCCN=C(N)N)C(=O)N[C@@H](CC(N)=O)C(=O)N[C@H](C(=O)N[C@@H](CC(C)C)C(=O)N[C@@H](CCCCN)C(=O)N[C@@H](CCCCN)C(=O)N[C@H](C(=O)NCC(=O)N[C@@H](CCCCN)C(=O)N[C@@H](CCC(=O)O)C(=O)N[C@@H](C)C(=O)N[C@H](C(=O)N[C@@H](CO)C(=O)N[C@@H](CC(C)C)C(=O)N[C@H](C(=O)N[C@@H](C)C(=O)NCC(=O)N[C@@H](C)C(=O)N[C@@H](CC(C)C)C(=O)N[C@@H](CCCCN)C(=O)N[C@@H](CCC(N)=O)C(=O)N[C@@H](CO)C(=O)O)[C@@H](C)CC)C(C)C)C(C)C)[C@@H](C)CC)[C@@H](C)CC` [IKIPSFFRNILKKVGKEAVSLIAGALKQS] the MIC [14] was 20 µM (≈ 63.1 µg/mL), the MIC [15] was 10 µM (≈ 31.6 µg/mL) and the MIC [16] was 10 µM (≈ 31.6 µg/mL). For the same compound, the MIC [17] was 1.25 µM (≈ 3.95 µg/mL), the MIC [18] was 10 µM (≈ 31.6 µg/mL) and the MIC [19] was ≥ 80 µM. For the same compound, the MIC [20] was 5 µM (≈ 15.8 µg/mL), the MIC [21] was 7.07 µM (≈ 22.3 µg/mL) and the MIC [22] was 2.5 µM (≈ 7.89 µg/mL). The MIC [23] was 2.5 µM (≈ 7.89 µg/mL), the MIC [24] was 5 µM (≈ 15.8 µg/mL) and the MIC [25] was 10 µM (≈ 31.6 µg/mL). The MIC [26] was 10 µM (≈ 31.6 µg/mL), the MIC [27] was 20 µM (≈ 63.1 µg/mL) and the MIC [28] was 5 µM (≈ 15.8 µg/mL).

`CC[C@H](C)[C@@H]1NC(=O)[C@H](CCCCN)NC(=O)[C@@H](NC(=O)[C@H](C)NC(=O)[C@@H](NC(=O)[C@H](CC(C)C)NC(=O)[C@H](CC(=O)O)NC(=O)[C@@H](NC(=O)CNC(=O)[C@H](CC(C)C)NC(=O)[C@H](CCCCN)NC(=O)[C@H](C)NC(=O)[C@H](CC(C)C)NC(=O)[C@H](CC(=O)O)NC(=O)[C@H](CCCCN)NC(=O)CNC(=O)[C@H](CC(C)C)NC(=O)CNC(=O)[C@H](CCCCN)NC(=O)[C@H](CO)NC(=O)[C@H](C)NC(=O)[C@H](Cc2ccccc2)NC(=O)[C@@H](N)CCCCN)C(C)C)C(C)C)CSSC[C@@H](C(=O)O)NC(=O)[C@H](CCC(N)=O)NC(=O)[C@H](CCCCN)NC(=O)[C@H](CO)NC1=O` [KFASKGLGKDLAKLGVDLVACKISKQC] was tested, and the MIC [29] was ≥ 50 µM, the MIC [15] was ≥ 200 µM and the MIC [16] was ≥ 200 µM. The MIC [20] was ≥ 200 µM, the MIC [21] was > 200 µM and the MIC [28] was ≥ 100 µM. The MIC [30] was ≥ 100 µM.

With `NCCCC[C@H](NC(=O)[C@H](Cc1c[nH]c2ccccc12)NC(=O)[C@H](CCCCN)NC(=O)[C@H](Cc1c[nH]c2ccccc12)NC(=O)[C@H](CCCCN)NC(=O)[C@@H](N)Cc1c[nH]c2ccccc12)C(=O)O` [WKWKWK] the MIC [31] was ≥ 256 µM, the MIC [32] was ≥ 256 µM and the MIC [33] was 16 µM (≈ 15.4 µg/mL). For the same compound, the MIC [34] was ≥ 128 µM, the MIC [35] was ≥ 256 µM and the MIC [36] was ≥ 256 µM. For the same compound, the MIC [37] was 16 µM (≈ 15.4 µg/mL), the MIC [38] was ≥ 32 µM and the MIC [39] was ≥ 32 µM. The MIC [40] was ≥ 32 µM, the MIC [41] was ≥ 32 µM and the MIC [42] was ≥ 64 µM. For the same compound, the MIC [43] was ≥ 256 µM.
